Blank lines part the entries; values can stand above or below the compound they belong to.
Tests used:
Pyruvate kinase PKM [1] = biological target: T1, Pyruvate kinase PKM (Homo sapiens, UniProt P14618); assay: Activation of PKM2 (unknown origin)
Target sequence in this assay (P14618 whole entry): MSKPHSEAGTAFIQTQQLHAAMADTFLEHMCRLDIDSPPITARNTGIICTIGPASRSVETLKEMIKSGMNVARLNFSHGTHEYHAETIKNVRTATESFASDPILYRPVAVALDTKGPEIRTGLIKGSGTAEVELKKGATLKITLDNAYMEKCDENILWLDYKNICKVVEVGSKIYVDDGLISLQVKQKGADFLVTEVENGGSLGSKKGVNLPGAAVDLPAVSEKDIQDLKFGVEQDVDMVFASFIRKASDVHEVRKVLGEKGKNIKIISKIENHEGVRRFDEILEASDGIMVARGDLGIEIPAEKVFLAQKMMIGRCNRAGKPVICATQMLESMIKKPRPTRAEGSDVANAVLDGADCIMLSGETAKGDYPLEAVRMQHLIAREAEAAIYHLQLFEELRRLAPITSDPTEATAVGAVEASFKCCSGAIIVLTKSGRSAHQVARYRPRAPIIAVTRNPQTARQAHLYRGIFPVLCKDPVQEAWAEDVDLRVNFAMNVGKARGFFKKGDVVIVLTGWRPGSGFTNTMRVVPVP

Pyruvate kinase PKM [2] = biological target: T1, Pyruvate kinase PKM; assay: Binding affinity to PKM2 (unknown origin) assessed as Gibbs free energy
Target sequence in this assay (P14618 2-531 limits assumed): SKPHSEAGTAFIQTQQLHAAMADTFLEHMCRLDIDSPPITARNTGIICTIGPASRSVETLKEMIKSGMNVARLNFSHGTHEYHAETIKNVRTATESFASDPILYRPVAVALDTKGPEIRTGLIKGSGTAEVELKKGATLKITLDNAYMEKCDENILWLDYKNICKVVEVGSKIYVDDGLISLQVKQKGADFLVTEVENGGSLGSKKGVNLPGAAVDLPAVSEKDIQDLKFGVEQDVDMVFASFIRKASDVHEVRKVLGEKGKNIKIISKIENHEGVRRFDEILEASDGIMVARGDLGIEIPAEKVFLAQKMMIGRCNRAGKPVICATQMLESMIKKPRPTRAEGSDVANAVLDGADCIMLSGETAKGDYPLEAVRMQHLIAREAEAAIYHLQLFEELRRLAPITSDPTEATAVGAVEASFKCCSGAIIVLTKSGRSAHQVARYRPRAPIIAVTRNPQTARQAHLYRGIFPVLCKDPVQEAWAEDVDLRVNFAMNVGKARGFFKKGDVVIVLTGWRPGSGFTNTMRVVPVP

Pyruvate kinase PKM [3] = biological target: T1, Pyruvate kinase PKM; assay: Inhibition of PKM2 (unknown origin)
Target sequence in this assay (P14618 whole entry): as the sequence (P14618 whole entry) above

Pyruvate kinase PKM [4] = biological target: T1, Pyruvate kinase PKM; assay: Inhibition of PKM2 (unknown origin) at 10 uM relative to control
Target sequence in this assay (P14618 2-531 limits assumed): as the sequence (P14618 2-531 limits assumed) above

Pyruvate kinase PKM [5] = biological target: T1, Pyruvate kinase PKM; assay: Inhibition of PKM1 (unknown origin) at 10 uM relative to control
Target sequence in this assay (P14618 2-531 limits assumed): as above

HCT-116 = assay: Antiproliferative activity against human HCT-116 cells assessed as cell growth inhibition; format: functional, cell-based
HeLa = assay: Antiproliferative activity against human HeLa cells assessed as cell growth inhibition; format: functional, cell-based
PC-3 = assay: Antiproliferative activity against human PC-3 cells assessed as cell growth inhibition; format: functional, cell-based
NCI-H1299 [6] = assay: Inhibition of glycolysis in human NCI-H1299 cells; format: functional
HT-29 = assay: Antiproliferative activity against human HT-29 cells assessed as cell growth inhibition; format: functional, cell-based
DLD-1 = assay: Antiproliferative activity against human DLD-1 cells assessed as cell growth inhibition; format: functional, cell-based
NCI-H1299 [7] = assay: Antiproliferative activity against human NCI-H1299 cells assessed as cell growth inhibition; format: functional, cell-based
Pyruvate kinase PKM [8] = biological target: T1, Pyruvate kinase PKM; assay: Activation of PKM2 in human NCI-H1299 cells; format: cell-based
Target sequence in this assay (P14618 whole entry): as the sequence (P14618 whole entry) above

Structure (SMILES): O=C(c1cc(C(F)(F)F)n[nH]1)N(Cc1ccc(O)cc1F)CC1CCC1
AC50 (Pyruvate kinase PKM [1]): 10 nM

Structure (SMILES): COc1ccccc1N1CCN(C(=O)c2ccc(NS(=O)(=O)c3cccc4cccnc34)cc2)CC1
AC50 (Pyruvate kinase PKM [1]): 10 nM

Structure (SMILES): C=C1C(=O)O[C@H]2C1CCC(C)=C1CC[C@@](C)(O)[C@@H]12 (stereo not given in full)
AC50 (Pyruvate kinase PKM [1]): 6 nM

Structure (SMILES): Cn1cc(C(=O)c2cccc(Cl)c2Cl)cc1C(=O)NCCNC(=O)c1cc(C(=O)c2cccc(Cl)c2Cl)cn1C
AC50 (Pyruvate kinase PKM [1]): 10 nM

Structure (SMILES): COc1cc(/C=C/C(=O)O)cc(OC)c1O [SINAPINATE]
AC50 (Pyruvate kinase PKM [1]): 26200 nM

Structure (SMILES): O=c1c(O)c(-c2cc(O)c(O)c(O)c2)oc2cc(O)cc(O)c12 [MYRICETIN]
AC50 (Pyruvate kinase PKM [1]): 510 nM

Structure (SMILES): CCCCCN1/C(=C\C=C\C2N(CCCC)c3cc(Cl)c(Cl)cc3N2CCCCC)N(CCCC)c2cc(Cl)c(Cl)cc21 (stereo not given)
inhibition (Pyruvate kinase PKM [4]): 86% | inhibition (Pyruvate kinase PKM [5]): 31%

Structure (SMILES): Nc1cccc(S(=O)(=O)N2CCCN(S(=O)(=O)c3ccc4c(c3)OCCO4)CC2)c1
AC50 (Pyruvate kinase PKM [1]): 30 nM

Structure (SMILES): Cc1ccc(C)n1-c1ccc(O)c(C(=O)O)c1
inhibition (Pyruvate kinase PKM [4]): 81% | inhibition (INH) (NCI-H1299 [6]): 18.5% | inhibition (Pyruvate kinase PKM [5]): 34%

Structure (SMILES): O=c1cc(-c2ccc(O)cc2)oc2cc(O)cc(O)c12 [APIGENIN]
IC50 (HCT-116): 27900 nM | IC50 (HT-29): 2000 nM | IC50 (DLD-1): 89500 nM

Structure (SMILES): CC(C)=CCC1=C(O)C(=O)c2ccccc2C1=O [LAPACHOL]
deltaG (Pyruvate kinase PKM [2]): -9.34 kcal/mol | IC50 (Pyruvate kinase PKM [3]): 1400 nM

Results, then the compound that gave them:

AC50 (Pyruvate kinase PKM [1]): 90 nM
Structure (SMILES): O=C1CCc2cc(S(=O)(=O)Nc3ccc(F)c(Cl)c3)c(F)cc2N1

deltaG (Pyruvate kinase PKM [2]): -7.98 kcal/mol | IC50 (Pyruvate kinase PKM [3]): 1420 nM
Structure (SMILES): CC(C)=CC[C@@H](O)C1=CC(=O)c2c(O)ccc(O)c2C1=O [SHIKONIN]

inhibition (Pyruvate kinase PKM [4]): 84% | inhibition (Pyruvate kinase PKM [5]): 36%
Structure (SMILES): O=C(O)CN1C(=O)/C(=C/c2ccc(OC(=O)c3ccccc3I)cc2)SC1=S

AC50 (Pyruvate kinase PKM [1]): 3140 nM | IC50 (HCT-116): 460 nM | IC50 (HeLa): 460 nM | IC50 (PC-3): 460 nM
Structure (SMILES): O=S(=O)(Nc1ccc(C2(O)CSC(=S)N2Cc2ccccc2)cc1)c1ccc2c(c1)OCCO2 (stereo not given)

AC50 (Pyruvate kinase PKM [1]): 22200 nM
Structure (SMILES): O=C(O)/C=C/c1ccc(O)cc1 [COUMARIC ACID]

AC50 (Pyruvate kinase PKM [1]): 950 nM
Structure (SMILES): COc1ccc(-c2cc(=O)c3c(OC)c(OC)c(OC)c(OC)c3o2)cc1 [TANGERETIN]

AC50 (Pyruvate kinase PKM [1]): 7000 nM
Structure (SMILES): O=P(O)(O)OC[C@H]1O[C@](O)(COP(=O)(O)O)[C@@H](O)[C@@H]1O [FOSFRUCTOSE]

AC50 (Pyruvate kinase PKM [1]): 15 nM
Structure (SMILES): C=C1C(=O)O[C@@H]2[C@H]3O[C@]3(C)CC/C=C(/C(=O)OCCOCCOC(=O)/C3=C/CC[C@@]4(C)O[C@@H]4[C@H]4OC(=O)C(=C)[C@@H]4CC3)CC[C@@H]12

IC50 (NCI-H1299 [7]): 2950 nM | IC50 (HCT-116): 2950 nM | IC50 (HeLa): 2950 nM
Structure (SMILES): CC1=C(CSC(=S)N2CCCCC2)C(=O)c2ccccc2C1=O

AC50 (Pyruvate kinase PKM [8]): 70 nM
Structure (SMILES): COc1cccc(Cn2ncc3c4sc([S+](C)[O-])cc4n(C)c3c2=O)c1 (stereo not given)

AC50 (Pyruvate kinase PKM [8]): 60 nM
Structure (SMILES): Cc1cc2c(s1)c1cnn(Cc3ccccc3F)c(=O)c1n2C
